Experimental data from US20230293458A1, “MULTIBIOTIC AGENTS AND METHODS OF USING THE SAME” (Flagship Pioneering Innovations V, Inc., priority 2017, published 2023).

What was measured:
[1] = Stability of multibiotic agents in Simulated Intestinal Fluid (SIF); type: in vitro ADME; conditions: simulated intestinal fluid pH 6.7 with pancreatin, 37° C., 1 μM
In short: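 Compounds at 1 μM final (from 1 mM DMSO stock) incubated at 37 °C with agitation in fresh SIF (FaSSIF plus pancreatin in pH 6.7 phosphate buffer). Aliquots taken at T0 and regular intervals, quenched with 1 volume acetonitrile. Degradation rate determined by LC/MS.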

[2] = Stability of multibiotic agents in Simulated Gastric Fluid (SGF); type: in vitro ADME; conditions: simulated gastric fluid pH 1.6 with pepsin, 37° C., 1 μM
In short: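 Compounds were incubated at 1 μM final at 37 °C in simulated gastric fluid containing NaCl, pH 1.6, with FaSSIF powder and 0.1 mg/mL pepsin. Aliquots were taken at T0 and at regular intervals and quenched with acetonitrile. Degradation rates were determined by LC/MS.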

Row | SMILES | Assay 3 (SIF) (% @ Remaining 4 hours) [1] | Assay 2 (SGF) (% Remaining @ 4 hours) [2]
1 | CCCC(=O)Oc1cc(OC(=O)CCC)c2c(=O)c(OC(=O)CCC)c(-c3ccc(OC(=O)CCC)c(OC(=O)CCC)c3)oc2c1 [Example 75, [2-butanoyloxy-4-[3,5,7-tri(butanoyloxy)-4-oxo-chromen-2-yl]phenyl]butanoate] | B (25-75% of the tested compound remaining) | C (>75% of the tested compound remaining)
2 | CCCC(=O)O[C@@H]1[C@H](OC(=O)CCC)[C@H](C)OC(O)[C@H]1OC(=O)CCC (stereo partly drawn) [Example 156, [(2S,3R,4R,5S)-4,5-di(butanoyloxy)-6-hydroxy-2-methyl-tetrahydropyran-3-yl] butanoate] | A (<25% of the tested compound remaining) | C (>75% of the tested compound remaining)
3 | CCCC(=O)O[C@H](C)CC(=O)OCC(C)(C)[C@@H](OC(=O)C[C@@H](C)OC(=O)CCC)C(=O)NCCC(N)=O [Example 96, [(3R)-4-[(3-amino-3-oxo-propyl)amino]-3-[(3R)-3-butanoyloxybutanoyl]oxy-2,2-dimethyl-4-oxo-butyl] (3R)-3-butanoyloxybutanoate] | C (>75% of the tested compound remaining) | C (>75% of the tested compound remaining)
4 | CC(=O)OCc1cnc(C)c(O)c1COC(C)=O [Example 80, [4-(acetoxymethyl)-5-hydroxy-6-methyl-3-pyridyl] methyl acetate] | C (>75% of the tested compound remaining) | C (>75% of the tested compound remaining)
5 | C=C1CC[C@H](OC(=O)[C@H](OC(=O)CCC)[C@@H](OC(=O)CCC)[C@H](OC(=O)CCC)[C@@H](COC(=O)CCC)OC(=O)CCC)C/C1=C/C=C1\CCC[C@]2(C)[C@@H]([C@H](C)CCCC(C)C)CC[C@@H]12 [Example 184, [(1S,3Z)-3-[(2E)-2-[(1R,3aS,7aR)-1-[(1R)-1,5-dimethylhexyl]-7a-methyl-2,3,3a,5,6,7-hexahydro-1H-inden-4-ylidene]ethylidene]-4-methylene-cyclohexyl] (2R,3S,4R,5R)-2,3,4,5,6-penta(butanoyloxy)hexanoate] | A (<25% of the tested compound remaining) | B (25-75% of the tested compound remaining)
6 | C[C@@H](O)CC(=O)OCCCNC(=O)[C@H](OC(=O)C[C@@H](C)O)C(C)(C)COC(=O)C[C@@H](C)O [Example 111, 3-[[(2R)-2,4-bis[[(3R)-3-hydroxybutanoyl]oxy]-3,3-dimethyl-butanoyl]amino]propyl (3R)-3-hydroxybutanoate] | C (>75% of the tested compound remaining) | C (>75% of the tested compound remaining)
7 | C=C1CC[C@H](OC(=O)C2(C)OCC[C@@H](C)O2)C/C1=C/C=C1\CCC[C@]2(C)[C@@H]([C@H](C)CCCC(C)C)CC[C@@H]12 (stereo partly drawn) [Example 187, [(1S,3Z)-3-[(2E)-2-[(1R,3aS,7aR)-1-[(1R)-1,5-dimethylhexyl]-7a-methyl-2,3,3a,5,6,7-hexahydro-1H-inden-4-ylidene]ethylidene]-4-methylene-cyclohexyl] (4R)-2,4-dimethyl-1,3-dioxane-2-carboxylate] | C (>75% of the tested compound remaining) | B (25-75% of the tested compound remaining)
8 | CCCC(=O)Oc1ccc(/C=C/C(=O)CC(=O)/C=C/c2ccc(OC(=O)CCC)c(OC)c2)cc1OC [Example 14, [4-[(1E,6E)-7-(4-butanoyloxy-3-methoxy-phenyl)-3,5-dioxo-hepta-1,6-dienyl]-2-methoxy-phenyl] butanoate] | C (>75% of the tested compound remaining) | C (>75% of the tested compound remaining)
9 | CC(C)(COC(=O)CCc1c[nH]c2ccccc12)[C@@H](OC(=O)CCc1c[nH]c2ccccc12)C(=O)NCCC(N)=O [Example 98, [(3R)-4-[(3-amino-3-oxo-propyl)amino]-3-[3-(1H-indol-3-yl)propanoyloxy]-2,2-dimethyl-4-oxo-butyl] 3-(1H-indol-3-yl)propanoate] | A (<25% of the tested compound remaining) | C (>75% of the tested compound remaining)
10 | CCCC(=O)N[C@H]1CC[C@H](NC(=O)CCC)CC1 [Example 132, trans-N-[4-(butanoylamino)cyclohexyl]butanamide] | C (>75% of the tested compound remaining) | C (>75% of the tested compound remaining)
11 | C[C@@H](O)CC(=O)NCCCN(CCCCN(CCCNC(=O)C[C@@H](C)O)C(=O)C[C@@H](C)O)C(=O)C[C@@H](C)O [Example 136, (3R)-3-hydroxy-N-[3-[[(3R)-3-hydroxybutanoyl]-[4-[[(3R)-3-hydroxybutanoyl]-[3-[[(3R)-3-hydroxybutanoyl]amino]propyl]amino]butyl]amino]propyl]butanamide] | C (>75% of the tested compound remaining) | C (>75% of the tested compound remaining)
12 | O=C(Cc1c[nH]c2ccccc12)O[C@@H]1OC[C@@H](OC(=O)Cc2c[nH]c3ccccc23)[C@@H](OC(=O)Cc2c[nH]c3ccccc23)[C@H]1OC(=O)Cc1c[nH]c2ccccc12 [Example 146, [(3R,4R,5R,6S)-4,5,6-tris[[2-(1H-indol-3-yl)acetyl]oxy]tetrahydropyran-3-yl] 2-(1H-indol-3-yl)acetate] | A (<25% of the tested compound remaining) | C (>75% of the tested compound remaining)
13 | CC(=O)Oc1ccc(/C=C/c2cc(OC(C)=O)cc(OC(C)=O)c2)cc1 [Example 118, [(E)-2-(3,5-diacetoxyphenyl)vinyl]phenyl] acetate] | C (>75% of the tested compound remaining) | C (>75% of the tested compound remaining)
14 | CCCC(=O)O[C@H]1CO[C@H]2[C@@H]1OC[C@H]2OC(=O)CCC [Example 108, [(3S,3aR,6R,6aR)-6-butanoyloxy-2,3,3a,5,6,6a-hexahydrofuro[3,2-b]furan-3-yl] butanoate] | B (25-75% of the tested compound remaining) | C (>75% of the tested compound remaining)
15 | CCCC(=O)NCCCN(CCCNC(=O)CCC)C(=O)CCC [Example 129, N-[3-[butanoyl-[3-(butanoylamino)propyl]amino]propyl]butanamide] | C (>75% of the tested compound remaining) | C (>75% of the tested compound remaining)
16 | CCCC(=O)O[C@H](C)CCOC(=O)C[C@@H](C)OC(=O)CCC [Example 173, [(3R)-3-butanoyloxybutyl] (3R)-3-butanoyloxybutanoate] | A (<25% of the tested compound remaining) | C (>75% of the tested compound remaining)
17 | CO[C@@H]1[C@@H](OC(C)=O)[C@@H](OC(C)=O)[C@H](OC(C)=O)[C@H](OC(C)=O)[C@H]1OC(C)=O [Example 84, (1R,2R,3R,4S,5R,6R)-2,3,4,6-tetrakis(acetyloxy)-5-methoxycyclohexyl acetate] | C (>75% of the tested compound remaining) | C (>75% of the tested compound remaining)
18 | CCCC(=O)NCCCCN(CCCNC(=O)CCC)C(=O)CCC [Example 127, N-[4-[butanoyl-[3-(butanoylamino)propyl]amino]butyl]butanamide] | C (>75% of the tested compound remaining) | C (>75% of the tested compound remaining)
19 | CC(=O)OCCCNC(=O)[C@H](OC(C)=O)C(C)(C)COC(C)=O [Example 89, 3-[[(2R)-2,4-diacetoxy-3,3-dimethyl-butanoyl]amino]propyl acetate] | C (>75% of the tested compound remaining) | C (>75% of the tested compound remaining)
20 | CC(=O)OCc1cnc(C)c(OC(C)=O)c1COC(C)=O [Example 99, [5-acetoxy-4-(acetoxymethyl)-6-methyl-3-pyridyl] methyl acetate] | C (>75% of the tested compound remaining) | C (>75% of the tested compound remaining)
21 | CCC(=O)OC1OC[C@H](OC(=O)CC)[C@H](OC(=O)CC)[C@H]1OC(=O)CC (stereo partly drawn) [Example 149, [(3S,4S,5R)-4,5,6-tri(propanoyloxy)tetrahydropyran-3-yl] propanoate] | C (>75% of the tested compound remaining) | C (>75% of the tested compound remaining)
22 | CC(O)CCOC(=O)c1cc(N)ccc1O (stereo in doubt) [Example 112, [(3R)-3-hydroxybutyl] 5-amino-2-hydroxy-benzoate] | C (>75% of the tested compound remaining) | C (>75% of the tested compound remaining)
23 | C[C@@H](O)CCOC(=O)C[C@@H](C)O [Example 172, [(3R)-3-hydroxybutyl] (3R)-3-hydroxybutanoate] | C (>75% of the tested compound remaining) | C (>75% of the tested compound remaining)
24 | O=C(Cc1c[nH]c2ccccc12)O[C@H]1[C@@H](OC(=O)Cc2c[nH]c3ccccc23)COC(O)[C@@H]1OC(=O)Cc1c[nH]c2ccccc12 (stereo partly drawn) [Example 147, [(3S,4S,5R)-6-hydroxy-4,5-bis[[2-(1H-indol-3-yl)acetyl]oxy]tetrahydropyran-3-yl] 2-(1H-indol-3-yl)acetate] | B (25-75% of the tested compound remaining) | C (>75% of the tested compound remaining)
